Assays:
[1] = Surface Tension Test Method (Kruss K12 tensiometer, Wilhelmy plate); type: physicochemical
Description: Surface Tension Test Method
Surface tension was measured using a K12 process tensiometer (available from Kruss GmbH of Hamburg, Germany) using a Wilhemly plate method with a platinum PL01 plate (available from Krüss GmbH). Forty milliliters of the solution to be tested were placed in a 60 mL glass snap cap jar with an inner diameter of approximately 1.5 inches.

[2] = Solubility of neutral fluorinated surfactants in water at 22° C. (capillary GC of saturated solutions); type: physicochemical; settings: pure deionized water
Description: Various neutral fluorinated surfactants were tested to determine their solubility in pure deionized water.

[3] = aqueous ammonium hydroxide, mole ratio 2.0, same concentrations
[4] = aqueous TMAH, mole ratio 1.0, equivalent concentrations
[5] = aqueous TMAH, mole ratio 2.0, same concentrations

CC(O)CNS(=O)(=O)C(F)(F)C(F)(F)C(F)(F)C(F)(F)F (centres unmarked) [I, C4F9SO2N(H)CH2CH(CH3)OH]
Surface tension in water compared [1, 3]: roughly equivalent surface tensions | melting point: 80.33 °C

O=S(=O)(NCCOCCOCCO)C(F)(F)C(F)(F)C(F)(F)C(F)(F)F [VIII, C4F9SO2NH(CH2CH2OCH2CH2OCH2CH2OH)]
Surface tension in water compared [1, 4]: significantly lower surface tensions than H-FBSE | Surface tension in water compared [1, 5]: significantly lower surface tension in water than H-FBSE | Surface tension in water compared [1, 3]: lowest surface tension in water of all the materials tested

CN(CCOCCO)S(=O)(=O)C(F)(F)C(F)(F)C(F)(F)C(F)(F)F [VI, C4F9SO2N(CH3)(CH2CH2OCH2CH2OH)]
% Soluble in water at 22 Deg C. [2]: 0.232% | melting point: 80.5 °C

O=S(=O)(N(CCO)CCO)C(F)(F)C(F)(F)C(F)(F)C(F)(F)F [B, reference compound]
% Soluble in water at 22 Deg C. [2]: 0.0592%

O=S(=O)(NCCO)C(F)(F)C(F)(F)C(F)(F)C(F)(F)F [A, reference compound]
Surface tension in water compared [1, 3]: roughly equivalent surface tensions

O=S(=O)(NCCOCCO)C(F)(F)C(F)(F)C(F)(F)C(F)(F)F [III, C4F9SO2N(H)CH2CH2OCH2CH2OH]
Surface tension in water compared [1, 4]: significantly lower surface tensions than H-FBSE | Surface tension in water compared [1, 5]: significantly lower surface tension in water than H-FBSE | Surface tension in water compared [1, 3]: lower surface tension in water than the H-FBSE | melting point: 35.7 °C

O=S(=O)(N(CCOCCO)CCOCCO)C(F)(F)C(F)(F)C(F)(F)C(F)(F)F [IV, C4F9SO2N(CH2CH2OCH2CH2OH)2]
% Soluble in water at 22 Deg C. [2]: 0.101%

O=S(=O)(N(CCO)CCOCCO)C(F)(F)C(F)(F)C(F)(F)C(F)(F)F [V, C4F9SO2N(CH2CH2OCH2CH2OH)(CH2CH2OH)]
% Soluble in water at 22 Deg C. [2]: 100 (miscible)^ % | melting point: 45.1 °C

CN(CCO)S(=O)(=O)C(F)(F)C(F)(F)C(F)(F)C(F)(F)F [C, reference compound]
% Soluble in water at 22 Deg C. [2]: 0.118%

Source: patent publication US9725683B2, “Surfactants and methods of making and using same” (priority 2013, dated 2017)
